In patent publication US10221172B2, “Benzothiazole and benzisothiazole-substituted compounds as mGluR4 allosteric potentiators, compositions, and methods of treating neurological dysfunction” (Vanderbilt University, priority 2015, dated 2019) one finds EC50 data, which are given here for 26 compounds.

The target of the assay is human mGluR4 (Homo sapiens (Human), UniProt Q14833). Put plainly: mGluR4 potentiation assay, CHO cells transfected with human mGluR4, Ca2+-sensitive dye, EC20 agonist. The class given is cell-based. As to conditions: potentiation of mGluR4. The procedure: The disclosed compounds and compositions can be evaluated for their ability to act as a potentiator of metabotropic glutamate receptor activity, in particular mGluR4 activity, by any suitable known methodology known in the art. For example, Chinese Hamster Ovary (CHO) cells transfected with human mGluR4 or HEK cells co-transfected with rat mGluR4 and the G-protein regulated Inwardly Rectifying Potassium channel (GIRK) were plated in clear bottom assay plates for assay in a Hamamatsu FDSS Fluorometric Plate Reader. The cells were loaded with either a Ca2+-sensitive fluorescent dye or the thallium responsive dye and the plates were washed and placed into a suitable kinetic plate reader. For human mGluR4 assays, a fluorescence baseline was established for 3-5 seconds, the disclosed compounds were then added to the cells, and the response in cells was measured. Approximately two and a half minutes later, a concentration of mGluR4 orthosteric agonist (e.g. glutamate or L-AP4) eliciting approximately 20% (EC20) of the maximal agonist response was added to the cells, and the response was measured. Two minutes later, a concentration of mGluR4 agonist (e.g. glutamate or L-AP4) eliciting 80% (EC80) of the maximal agonist response was added to the cells, and the response was measured. For rat mGluR4/GIRK experiments, a baseline was established for approximately five seconds, disclosed compounds were added, and either an EC20 or EC80 concentration of agonist was added approximately two and one half minutes later. Potentiation of the agonist response of mGluR4 by the disclosed compounds was observed as an increase in response to the EC20 concentration of agonist in the presence of compound compared to the response to agonist in the absence of compound. Similarly, antagonism of the agonist response of mGluR4 by the disclosed compounds was observed as a decrease in response to the EC80 concentration of agonist in the presence of compound compared to the response to agonist in the absence of compound.
The above described assay operated in two modes. In the first mode, a range of concentrations of the disclosed compounds are added to cells, followed by a single fixed concentration of agonist. If the compound acts as a potentiatior, an EC50 value for potentiation and a maximum extent of potentiation by the compound at this concentration of agonist is determined by non-linear curve fitting. If the compound acts as a noncompetitive antagonist, an IC50 value is determined by non-linear curve fitting. In the second mode, several fixed concentrations of the disclosed compounds are added to various wells on a plate, followed by a range in concentrations of agonist for each concentration of disclosed compound. The EC50 values for the agonist at each concentration of compound are determined by non-linear curve fitting. A decrease in the EC50 value of the agonist with increasing concentrations of the sample compound (a leftward shift of the agonist concentration-response curve) is an indication of the degree of mGluR4 potentiation at a given concentration of the sample compound. A decrease in the maximal response of the agonist with increasing concentrations of the sample compounds, with or without a rightward shift in agonist potency, is an indication of the degree of noncompetitive antagonism at mGluR4. The second mode also indicates whether the sample compounds also affect the maximum response to mGluR4 to agonists.

Where [1] appears, read: main compound table, species not given.
Where [2] appears, read: summary list repeated at the end of the table, species not stated.

As a reminder, the EC50 is the midpoint of the concentration-response curve.

Sequence of human mGluR4 (Q14833 33-912): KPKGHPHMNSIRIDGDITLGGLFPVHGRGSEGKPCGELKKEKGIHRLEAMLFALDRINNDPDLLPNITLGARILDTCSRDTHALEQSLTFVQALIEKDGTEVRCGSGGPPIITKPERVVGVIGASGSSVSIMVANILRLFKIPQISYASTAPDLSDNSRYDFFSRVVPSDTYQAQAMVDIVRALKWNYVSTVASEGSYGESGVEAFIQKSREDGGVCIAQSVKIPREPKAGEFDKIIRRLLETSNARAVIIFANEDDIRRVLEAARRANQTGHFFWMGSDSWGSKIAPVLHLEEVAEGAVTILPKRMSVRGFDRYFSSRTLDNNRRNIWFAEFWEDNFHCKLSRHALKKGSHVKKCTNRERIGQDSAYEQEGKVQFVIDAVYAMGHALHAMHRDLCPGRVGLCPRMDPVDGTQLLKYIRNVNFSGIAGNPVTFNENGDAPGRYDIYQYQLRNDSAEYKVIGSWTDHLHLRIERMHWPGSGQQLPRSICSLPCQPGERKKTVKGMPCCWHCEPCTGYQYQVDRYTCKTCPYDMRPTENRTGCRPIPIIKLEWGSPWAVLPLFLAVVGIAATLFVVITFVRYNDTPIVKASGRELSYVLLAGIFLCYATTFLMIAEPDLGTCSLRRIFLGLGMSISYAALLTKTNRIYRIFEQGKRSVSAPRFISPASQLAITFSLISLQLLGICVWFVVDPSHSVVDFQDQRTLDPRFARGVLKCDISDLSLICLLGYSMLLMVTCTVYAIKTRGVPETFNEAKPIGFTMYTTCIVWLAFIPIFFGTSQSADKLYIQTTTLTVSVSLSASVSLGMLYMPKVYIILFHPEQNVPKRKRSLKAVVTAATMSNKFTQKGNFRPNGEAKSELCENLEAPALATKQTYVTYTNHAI

Consider `CCCc1nsc2cc(Nc3n[nH]c4nccnc34)ccc12` [Example 24, 3-propyl-N-(1H-pyrazolo[3,4-b]pyrazine-3-yl)benzo[d]isothiazol-6-amine], for which the concentration giving a half-maximal response (EC50) by setting is: under setting [1], 23.4 nM; under setting [2], 23.4 nM. `CC(C)(C)c1nsc2cc(Nc3n[nH]c4cccnc34)ccc12` [Example 25, 3-(tert-butyl)-N-(1H-pyrazolo[4,3-b]pyridin-3-yl)benzo[d]isothiazol-6-amine]: under setting [2], the EC50 turned out to be 329 nM.

Consider `CCCc1nsc2cc(Nc3n[nH]c4ncccc34)ccc12` [Example 26, 3-propyl-N-(1H-pyrazolo[3,4-b]pyridin-3-yl)benzo[d]isothiazol-6-amine], for which the EC50 came out at 220 nM under setting [1] and 220 nM under setting [2]. Regarding `CC(C)(C)Cc1nsc2cc(Nc3n[nH]c4nccnc34)cnc12` [Example 27, 3-neopentyl-N-(1H-pyrazolo[3,4-b]pyrazin-3-yl) isothiazole[4,5-b] pyridin-6-amine], the EC50 runs as follows: under setting [1], 99.5 nM; under setting [2], 99.5 nM. In the case of `CC(C)(C)Cc1nsc2cc(Nc3n[nH]c4ncccc34)cnc12` [Example 28, 3-neopentyl-N-(1H-pyrazolo[3,4-b]pyridin-3-yl) isothiazolo[4,5-b] pyridin-6-amine], the EC50 came out at 119 nM under setting [1] and 119 nM under setting [2]. As to `FC(F)(F)c1nsc2cc(Nc3n[nH]c4ncccc34)ccc12` [Example 29, N-(1H-pyrazolo[3,4-b]pyridin-3-yl)-3-(trifluoromethyl)benzo[d] isothiazol-6-amine], the concentration for a half-maximal effect (EC50) by setting is: under setting [1], 1240 nM; under setting [2], 1240 nM. As to `O=C(NC1CC(F)(F)C1)c1nsc2cc(Nc3n[nH]c4nccnc34)ccc12` [Example 30, 6-((1H-pyrazolo[3,4-b]pyrazin-3-yl)amino)-N-(3,3-difluorocyclobutyl) benzo[d] isothiazole-3-carboxamide], the EC50 by setting is: under setting [1], 42.6 nM; under setting [2], 42.6 nM.

On to `CN1CCC2(CCN(C(=O)c3nsc4cc(Nc5n[nH]c6nccnc56)ccc34)CC2)C1=O` [Example 31, 8-(6-((1H-pyrazolo[3,4-b]pyrazin-3-yl)amino)benzo[d]isothiazole-3-carbonyl)-2-methyl-2,8-diazaspiro[4.5]decan-1-one], for which the EC50 was 1210 nM under setting [1] and 1210 nM under setting [2]. For the compound `CN1CCN(C(=O)c2nsc3cc(Nc4n[nH]c5nccnc45)ccc23)CC1=O` [Example 32, 4-(6-((1H-pyrazolo[3,4-b]pyrazin-3-yl)amino)benzo [d]isothiazole-3-carbonyl)-1-methylpiperazin-2-one], the EC50 is 1530 nM under setting [1] and 1530 nM under setting [2]. For the compound `O=C(c1nsc2cc(Nc3n[nH]c4nccnc34)ccc12)N1CCC(F)(F)CC1` [Example 33, (6-((1H-pyrazolo[3,4-b]pyrazin-3-yl)amino)benzo[d]isothiazol-3-yl)(4,4-difluoropiperidin-1-yl) methanone], the EC50 stood at 827 nM under setting [1] and 827 nM under setting [2]. As to `CC(=O)N1CCC(c2nsc3cc(Nc4n[nH]c5cccnc45)ccc23)CC1` [Example 35, 1-(4-(6-((1H-pyrazolo[4,3-b]pyridin-3-yl)amino)benzo[d]isothiazol-3-yl)piperidin-1-yl)ethan-1-one], the EC50 runs as follows: under setting [1], 199 nM; under setting [2], 199 nM. Regarding `c1cnc2c(Nc3ccc4c(C5CC5)nsc4c3)n[nH]c2c1` [Example 36, 3-cyclopropyl-N-(1H-pyrazolo [4,3-b]pyridin-3-yl) benzo[d]isothiazol-6-amine], the EC50 runs as follows: under setting [1], 78.2 nM; under setting [2], 78.2 nM. On to `c1cnc2c(Nc3ccc4c(C5CC5)nsc4c3)n[nH]c2n1` [Example 37, 3-cyclopropyl-N-(1H-pyrazolo [3,4-b]pyrazin-3-yl)benzo [d]isothiazol-6-amine], for which the 50% effective concentration (EC50) was 61.1 nM under setting [1] and 61.1 nM under setting [2]. On to `CC(C)(O)c1nsc2cc(Nc3n[nH]c4cccnc34)ccc12` [Example 38, 2-(6-((1H-pyrazolo [4,3-b]pyridin-3-yl)amino)benzo[d]isothiazol-3-yl)propan-2-ol], for which the EC50 under setting [1] is 1030 nM and the EC50 under setting [2] turned out to be 1030 nM. Regarding `Cc1nsc2cc(Nc3n[nH]c4cccnc34)cnc12` [Example 39, 3-methyl-N-(1H-pyrazolo [4,3-b]pyridin-3-yl)isothiazolo[4,5-b] pyridin-6-amine], the concentration giving a half-maximal response (EC50) is 157 nM under setting [1] and 157 nM under setting [2]. Regarding `CCC(C)c1nsc2cc(Nc3n[nH]c4cccnc34)cnc12` (stereo not drawn) [Example 40, 3-(sec-butyl)-N-(1H-pyrazolo[4,3-b]pyridin-3-yl)isothiazolo[4,5-b] pyridin-6-amine], the concentration for a half-maximal effect (EC50) by setting is: under setting [1], 54.2 nM; under setting [2], 54.2 nM. In the case of `CCc1nsc2cc(Nc3n[nH]c4cccnc34)cnc12` [Example 41, 3-ethyl-N-(1H-pyrazolo[4,3-b]pyridin-3-yl)isothiazolo [4,5-b]pyridin-6-amine], the EC50 under setting [1] was determined as 38.3 nM and the EC50 under setting [2] was found to be 38.3 nM.

Turning to `CCc1nsc2cc(Nc3n[nH]c4ncccc34)cnc12` [Example 42, 3-ethyl-N-(1H-pyrazolo[3,4-b]pyridin-3-yl)isothiazolo [4,5-b]pyridin-6-amine], the EC50 under setting [1] came out at 100 nM and the EC50 under setting [2] stood at 100 nM. In the case of `c1ccc(-c2nsc3cc(Nc4n[nH]c5cccnc45)ccc23)cc1` [Example 43, 3-phenyl-N-(1H-pyrazolo [4,3-b]pyridin-3-yl)benzo[d]isothiazol-6-amine], the EC50 under setting [1] turned out to be 226 nM and the 50% effective concentration (EC50) under setting [2] stood at 226 nM. Take `c1ccc(-c2nsc3cc(Nc4n[nH]c5ncccc45)ccc23)cc1` [Example 44, 3-phenyl-N-(1H-pyrazolo [3,4-b]pyridin-3-yl)benzo[d]isothiazol-6-amine]: the concentration for a half-maximal effect (EC50) stood at 2040 nM under setting [1] and 2040 nM under setting [2]. As for `c1cnc2c(Nc3ccc4c(-c5ccsc5)nsc4c3)n[nH]c2c1` [Example 45, N-(1H-pyrazolo[4,3-b]pyiridn-3-yl)-3-(thiophen-3-yl)benzo[d] isothiazol-6-amine], the EC50 by setting is: under setting [1], 216 nM; under setting [2], 216 nM. As for `c1cnc2c(Nc3ccc4c(-c5ccsc5)nsc4c3)n[nH]c2n1` [Example 46, N-(1H-pyrazolo[3,4-b]pyrazin-3-yl)-3-(thiophen-3-yl)benzo[d] isothiazol-6-amine], the EC50 worked out at 144 nM under setting [1] and 144 nM under setting [2].

With `OCc1nsc2cc(Nc3n[nH]c4cccnc34)cnc12` [Example 47, (6-((1H-pyrazolo[4,3-b]pyridin-3-yl)amino)isothiazolo[4,5-b]pyridin-3-yl)methanol], the 50% effective concentration (EC50) is 1060 nM under setting [1] and 1060 nM under setting [2].

Consider `Cc1nsc2cc(Nc3n[nH]c4ncccc34)cnc12` [Example 48, 3-methyl-N-(1H-pyrazolo [3,4-b]pyridin-3-yl)isothiazolo[4,5-b] pyridin-6-amine], for which the EC50 under setting [1] is 180 nM and the EC50 under setting [2] turned out to be 180 nM.

As for `c1cnc2[nH]nc(Nc3cnc4c(CN5CCCCC5)nsc4c3)c2c1` [Example 49, 3-(piperidin-1-ylmethyl)-N-(1H-pyrazolo[3,4-b]pyridin-3-yl)isothiazolo[4,5-b] pyridin-6-amine], the EC50 is 1560 nM under setting [1] and 1560 nM under setting [2]. As to `FC1(F)CCN(Cc2nsc3cc(Nc4n[nH]c5cccnc45)cnc23)CC1` [Example 50, 3-((4,4-difluoropiperidin-1-yl)methyl)-N-(1H-pyrazolo[4,3-b]pyridin-3-yl) isothiazolo[4,5-b]pyridin-6-amine], the concentration giving a half-maximal response (EC50) was found to be 81.1 nM under setting [1] and 81.1 nM under setting [2].
